Our source for the EC50 values is BindingDB's records for doi:10.1016/j.bmc.2017.06.049 (Federal University of Alagoas, 2017).

The nature of the experiment: Inhibition of Chikungunya virus nsP2 protease infected in African green monkey Vero cells assessed as inhibition of viral-induced cytopathic effect by titration assay. (Protection from cytopathic effect is a common read-out in antiviral testing.)

For the molecule `CCOc1ccc(/C=N/NC(=O)C2CC2c2ccc(C(C)(C)C)cc2)cc1OCC` (configuration not stated), the EC50 was determined as 5 µM.

On to `CCOc1ccc(/C=N/NC(=O)/C=C/Cc2ccc(C(C)(C)C)cc2)cc1OCC`, for which the EC50 was found to be 3.2 µM.

As usually defined, the EC50 is the midpoint of the concentration-response curve.
